Earlier results as cited in patent publication US20220160797A1 (North Carolina State University, priority 2019, published 2022).

Tested on: L. acidophilus NCFM
Conditions: grown on esculin compared to lactose

O=c1ccc2cc(O[C@@H]3O[C@H](CO)[C@@H](O)[C@H](O)[C@H]3O)c(O)cc2o1 [esculin]
up-regulation of gene lba0753: 2.3 log2
